The source made the active and inactive calls.

The source of these data is ChEMBL document CHEMBL1201862, “PubChem BioAssay data set” (2004).

For one test, the target named is T1, Insulin-degrading enzyme (Homo sapiens, UniProt P14735).
T1 sequence (P14735 whole entry): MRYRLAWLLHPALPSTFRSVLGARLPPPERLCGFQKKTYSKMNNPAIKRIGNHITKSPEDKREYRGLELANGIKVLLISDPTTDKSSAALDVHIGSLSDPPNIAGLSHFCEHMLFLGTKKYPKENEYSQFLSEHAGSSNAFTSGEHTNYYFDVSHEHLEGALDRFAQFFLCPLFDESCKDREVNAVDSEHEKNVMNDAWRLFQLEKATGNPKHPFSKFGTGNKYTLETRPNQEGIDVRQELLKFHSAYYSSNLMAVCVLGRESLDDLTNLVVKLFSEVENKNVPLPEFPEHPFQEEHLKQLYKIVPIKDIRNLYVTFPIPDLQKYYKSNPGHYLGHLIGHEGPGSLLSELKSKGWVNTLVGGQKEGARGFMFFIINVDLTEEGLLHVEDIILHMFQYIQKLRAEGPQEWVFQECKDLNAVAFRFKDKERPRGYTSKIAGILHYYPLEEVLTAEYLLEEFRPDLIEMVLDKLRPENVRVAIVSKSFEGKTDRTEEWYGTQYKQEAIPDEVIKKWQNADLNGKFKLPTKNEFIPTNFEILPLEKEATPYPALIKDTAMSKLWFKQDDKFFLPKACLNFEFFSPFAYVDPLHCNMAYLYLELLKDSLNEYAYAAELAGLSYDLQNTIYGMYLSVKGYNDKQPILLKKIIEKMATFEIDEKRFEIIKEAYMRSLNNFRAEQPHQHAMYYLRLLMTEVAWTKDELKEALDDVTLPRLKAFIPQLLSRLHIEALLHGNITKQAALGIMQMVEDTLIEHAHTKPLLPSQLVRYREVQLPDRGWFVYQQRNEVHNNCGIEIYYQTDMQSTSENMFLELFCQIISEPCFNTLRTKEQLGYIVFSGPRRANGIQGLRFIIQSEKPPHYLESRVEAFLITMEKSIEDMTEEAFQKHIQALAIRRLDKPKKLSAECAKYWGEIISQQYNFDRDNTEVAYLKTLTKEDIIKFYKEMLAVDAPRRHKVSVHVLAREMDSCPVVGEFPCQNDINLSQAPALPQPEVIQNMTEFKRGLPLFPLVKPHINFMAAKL
Nature of the test: Dose Response: Fluorescence polarization-based cell-based high throughput dose response assay for inhibitors of insulin-degrading enzyme (IDE). [Related pubchem assays: 434962 (Primary screen (IDE inhibitors in singlicate)), 449730 (Counterscreen (Cytotoxicity in triplicate)), 435028 (Confirmation (IDE inhibitors in triplicate)), 434984 (Summary …. The format is functional. For orientation: Polarisation of emitted light reports the rotation of a fluorescent probe.

Test [1] deals with T2, Short transient receptor potential channel 4 (Mus musculus, UniProt Q9QUQ5).
T2 sequence (Q9QUQ5 whole entry): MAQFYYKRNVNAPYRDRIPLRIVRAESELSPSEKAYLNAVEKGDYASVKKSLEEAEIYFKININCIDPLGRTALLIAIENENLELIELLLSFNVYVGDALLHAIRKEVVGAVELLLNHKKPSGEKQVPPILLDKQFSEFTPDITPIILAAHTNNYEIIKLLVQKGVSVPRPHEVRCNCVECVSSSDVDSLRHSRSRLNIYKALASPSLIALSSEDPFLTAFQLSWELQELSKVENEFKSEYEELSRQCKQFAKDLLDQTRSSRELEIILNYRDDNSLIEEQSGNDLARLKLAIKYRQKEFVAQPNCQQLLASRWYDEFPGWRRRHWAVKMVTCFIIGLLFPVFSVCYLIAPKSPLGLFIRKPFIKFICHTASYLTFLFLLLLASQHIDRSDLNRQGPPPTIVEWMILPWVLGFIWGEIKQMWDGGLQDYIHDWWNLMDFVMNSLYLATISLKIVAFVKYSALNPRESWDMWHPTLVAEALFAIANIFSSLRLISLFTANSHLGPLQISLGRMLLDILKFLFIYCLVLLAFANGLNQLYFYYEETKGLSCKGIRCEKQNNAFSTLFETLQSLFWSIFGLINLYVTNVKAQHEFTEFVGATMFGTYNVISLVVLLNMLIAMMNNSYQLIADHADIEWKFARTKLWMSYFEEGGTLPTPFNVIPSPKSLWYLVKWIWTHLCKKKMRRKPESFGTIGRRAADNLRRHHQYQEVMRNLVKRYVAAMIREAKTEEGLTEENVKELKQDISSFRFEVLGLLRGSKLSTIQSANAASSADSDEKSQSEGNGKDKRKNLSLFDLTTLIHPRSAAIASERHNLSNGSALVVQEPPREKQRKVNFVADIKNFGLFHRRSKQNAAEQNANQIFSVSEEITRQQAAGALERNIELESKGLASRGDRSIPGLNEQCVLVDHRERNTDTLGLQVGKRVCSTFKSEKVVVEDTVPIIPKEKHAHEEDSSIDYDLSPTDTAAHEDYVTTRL
Briefly: block of DAMGO-driven TRPC4 calcium entry – cell-based, HEK293 TRPC4/mu-opioid, Fluo-4 calcium, dose response (AID 434942).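 Further: potency of inhibitors blocking the TRPC4 calcium response.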 The format is functional.

A short description of test [2]: Counterscreen for IDE inhibitors: Luminescence-based cell-based high throughput dose response assay to identify compounds that are cytotoxic to HEK cells. [Related pubchem assays: 434962 (Primary screen (IDE inhibitors in singlicate)), 449730 (Counterscreen (Cytotoxicity in triplicate)), 435028 (Confirmation (IDE inhibitors in triplicate)) …. The class given is functional. As to conditions: HEK293. A general note: A counterscreen serves to expose hits that act by an unwanted route or on another target.

Test [3] is described as follows: viability of uninfected HEp-2 cells – cell-based, HTS, cytotoxicity control for RSV inhibitor project, dose response (AID 2410). The class given is functional. As to conditions: human respiratory syncytial virus.
The nature of test [4]: viability of HCT116 lacking mutant beta-catenin – cell-based, human colon tumor, dose response (AID 1045).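 Further: HCT116 colon tumor cells with beta catenin knocked out; cells exposed to compound for 60 hours.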 The class given is functional.
Test [5] in a line: viability of PTEN-deleted HCT116 cells – cell-based, HCT116 PTEN knockout, dose response (AID 1047).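 Further: HCT116 colon tumor cells with PTEN knocked out; cells exposed to compound for 60 hours before readout; potency for loss of cell viability measured by luminescence.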 The class given is functional.
Test [6] is described as follows: Luminescence Cell-Based Dose Retest to Confirm Inhibitors of Cancer Stem Cells. [Related pubchem assays (depositor defined):AID2717, AID2721]. The format is functional. As to conditions: Homo sapiens.
The nature of test [7]: luciferase reporter signal suppression in cells – H4 neuroglioma cells, luminescence, dose response (AID 1990). The format is functional, cell-based. For orientation: A reporter such as luciferase makes a cellular process visible.
A short description of test [8]: Luminescence Cell-Based Dose Response HTS to Identify Inhibitors of 5'UTR Stem-Loop Driven Prion Protein mRNA Translation in H4 Neuroglioblastoma Cells. [Related pubchem assays: 1827 (Project Summary), 1813 (Primary HTS)]. The format is functional.
The nature of test [9]: alpha-synuclein stem-loop luciferase translation blockers – H4 neuroglioma cells, luminescence, confirmation (AID 1988). The format is functional, cell-based.
The target of another test is T3, Estrogen receptor (Homo sapiens, UniProt P03372).
T3 sequence (P03372 whole entry): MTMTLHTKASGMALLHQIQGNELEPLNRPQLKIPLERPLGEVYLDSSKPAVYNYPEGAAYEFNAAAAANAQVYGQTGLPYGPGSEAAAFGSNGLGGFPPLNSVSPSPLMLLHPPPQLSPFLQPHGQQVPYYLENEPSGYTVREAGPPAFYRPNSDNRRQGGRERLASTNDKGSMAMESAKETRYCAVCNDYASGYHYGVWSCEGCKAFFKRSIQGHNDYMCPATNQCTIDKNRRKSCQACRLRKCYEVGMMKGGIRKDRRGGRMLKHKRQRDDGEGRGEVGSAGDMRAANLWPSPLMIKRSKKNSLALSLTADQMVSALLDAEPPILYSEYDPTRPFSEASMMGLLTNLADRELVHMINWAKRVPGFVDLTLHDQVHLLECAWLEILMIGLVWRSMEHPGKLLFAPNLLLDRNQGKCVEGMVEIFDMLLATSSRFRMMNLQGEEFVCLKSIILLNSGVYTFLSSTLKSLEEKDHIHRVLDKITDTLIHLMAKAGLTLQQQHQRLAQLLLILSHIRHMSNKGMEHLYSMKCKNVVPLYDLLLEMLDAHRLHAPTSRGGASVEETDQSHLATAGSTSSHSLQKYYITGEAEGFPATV
Briefly: ERα coactivator recruitment enhancers – biochemical, TR-FRET, ERα LBD, dose response (AID 737).

Test [10] is described as follows: antiviral protection against BTV-induced cell death – arbovirus, BSR cells, confirmation (AID 1250).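 Further: protection from viral cytopathic effect measured as cell viability by ATP luminescence.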 The class given is functional.
Test [11] can be described thus: A Cell Based Secondary Assay To Explore Cytotoxicity of Compounds that Sensitize Mycobacterium Tuberculosis to Beta-Lactam Antibiotics. The class given is functional.
The next test has as its target T4, Bcl-2-like protein 10 (Homo sapiens, UniProt Q9HD36).
T4 sequence (Q9HD36 whole entry): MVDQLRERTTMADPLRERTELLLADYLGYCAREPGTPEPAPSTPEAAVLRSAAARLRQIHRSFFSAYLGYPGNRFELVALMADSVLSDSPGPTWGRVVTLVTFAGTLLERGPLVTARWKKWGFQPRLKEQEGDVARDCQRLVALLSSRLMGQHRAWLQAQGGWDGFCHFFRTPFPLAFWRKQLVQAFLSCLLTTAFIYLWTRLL
Nature of the test: Concentration-response of Bcl-B inhibitors by biochemical FP with TR3 (AID 1243). The format is functional.

The next test addresses T5, Aminopeptidase N (Plasmodium falciparum FcB1/Columbia, UniProt O96935).
T5 sequence (O96935 whole entry): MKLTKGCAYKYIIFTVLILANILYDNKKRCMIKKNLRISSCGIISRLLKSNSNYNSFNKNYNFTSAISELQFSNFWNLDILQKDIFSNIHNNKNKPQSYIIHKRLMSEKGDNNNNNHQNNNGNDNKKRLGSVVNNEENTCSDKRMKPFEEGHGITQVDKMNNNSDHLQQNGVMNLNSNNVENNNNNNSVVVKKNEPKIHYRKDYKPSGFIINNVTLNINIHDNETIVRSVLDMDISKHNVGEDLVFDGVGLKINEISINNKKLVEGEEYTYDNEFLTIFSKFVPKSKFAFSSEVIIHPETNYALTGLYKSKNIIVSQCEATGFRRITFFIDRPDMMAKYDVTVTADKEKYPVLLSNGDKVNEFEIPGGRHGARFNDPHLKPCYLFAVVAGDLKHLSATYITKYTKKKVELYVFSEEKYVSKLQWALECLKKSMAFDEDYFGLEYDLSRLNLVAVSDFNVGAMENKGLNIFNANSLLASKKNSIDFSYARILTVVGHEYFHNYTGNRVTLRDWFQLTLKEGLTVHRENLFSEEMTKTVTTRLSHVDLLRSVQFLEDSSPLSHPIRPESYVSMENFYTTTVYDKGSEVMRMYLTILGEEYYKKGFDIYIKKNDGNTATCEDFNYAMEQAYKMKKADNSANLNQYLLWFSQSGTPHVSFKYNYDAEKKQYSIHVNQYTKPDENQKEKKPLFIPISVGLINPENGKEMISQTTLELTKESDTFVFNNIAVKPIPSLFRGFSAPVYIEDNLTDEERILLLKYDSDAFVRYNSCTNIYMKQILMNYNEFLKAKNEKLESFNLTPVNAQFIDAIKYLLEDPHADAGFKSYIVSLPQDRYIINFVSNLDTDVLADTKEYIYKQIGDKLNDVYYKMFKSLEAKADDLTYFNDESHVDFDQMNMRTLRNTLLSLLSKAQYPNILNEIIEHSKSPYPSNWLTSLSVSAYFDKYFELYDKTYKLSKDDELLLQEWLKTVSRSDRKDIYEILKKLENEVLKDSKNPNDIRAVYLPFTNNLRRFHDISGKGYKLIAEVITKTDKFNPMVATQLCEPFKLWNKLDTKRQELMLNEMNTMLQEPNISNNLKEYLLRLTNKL
Briefly: malaria alanyl aminopeptidase activity blockers – biochemical, fluorogenic H-Leu-NHMec substrate, 1536-well (AID 1445). Further details: species or system Plasmodium falciparum 3D7, 3D7.
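Wherever AC50 is given: cells exposed to compound for roughly 70 hours or longer before luminescence read.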

Usually IC50 stands for the concentration at which inhibition is half-maximal. One may read the EC50 as the concentration giving half of the maximal effect. Take `Cc1cccc(-c2nnc(SCc3nc4ccccc4[nH]3)n2Cc2ccco2)c1`: the results for the IC50 (at Insulin-degrading enzyme; in test [2]) were 5.67 µM (active) and 22.5 µM (not active), respectively. Further, the concentration giving a half-maximal response (EC50) in test [1] was 1.19 µM (active).
As a reminder, the CC50 is the concentration giving 50% cytotoxicity. For orientation: AC50 means the concentration giving half of the maximal activity seen. Take `COc1ccc2c(c1)-c1nc(NC(=O)c3cccs3)sc1CC2`: the CC50 in [3] is 7.91 µM (active). Also, the EC50 is 21.4 µM (active) in test [4] and 22 µM (active) in test [5]. In addition, the IC50 in the test “cells” was 26.8 µM (active). For the same molecule, the concentration at half-maximal activity (AC50) in test [6] is 6.23 µM (active).
Turning to `COc1ccc(/N=C2/C(=N\c3ccc(OC)cc3)N(c3ccc(OC)cc3)C(=S)N2c2ccc(N(C)C)cc2)cc1`, the EC50 was 0.146 µM (active) in test [7], 0.126 µM (active) in test [8] and 0.123 µM (active) in test [9]. Also, the 50% cytotoxic concentration (CC50) in [3] is > 50 µM (active). In addition, in the test “cells”, the half-maximal inhibitory concentration (IC50) was 5.89 µM (active).
Consider `Cc1ccc(NC(=O)CSc2nnc(-c3cnccn3)n2Cc2ccco2)cc1C`, for which the EC50 on Estrogen receptor is reported as 37.6 µM (not active).
With `CC(C)Cn1c2c(c(O)c(C(=O)Nc3nccs3)c1=O)CCCC2`, the half-maximal inhibitory concentration (IC50) in test [10] was 94.4 µM (active). The half-maximal cytotoxic concentration (CC50) in [11] was > 40 µM (active).
On to `O=C(O)C1Nc2ccc3ccccc3c2C2C=CCC12` (configuration not stated), for which, at Bcl-2-like protein 10, the concentration for a half-maximal effect (EC50) was 7.15 µM (active).
On to `Cc1cccc(N2CCN(C(=O)c3cccc(N4C(=O)C5CC=CC(C)C5C4=O)c3)CC2)c1C` (configuration not stated), for which the half-inhibitory concentration (IC50) was 4 µM (active) at Insulin-degrading enzyme and 23.8 µM (not active) in [2].
Consider `C(=N\c1ccc(/N=C/c2ccccn2)cc1)/c1ccccn1`, for which the EC50 at Bcl-2-like protein 10 was 4.39 µM (active).
In the case of `O=C(Nc1scc(-c2cccs2)c1C(=O)O)c1cccs1`, the half-inhibitory concentration (IC50) in test [10] was 24 µM (active); on Aminopeptidase N, 49.2 µM (active).
